Data on one compound can be found in patent US20260216239A1 (Arizona Board of Regents on Behalf of the University of …, priority 2020, published 2026).

One experiment relates to Bothrops moojeni venom. Put plainly: Thrombelastography in human plasma of venom procoagulant activity after isolated exposure of venom to compounds. It is filed as biochemical. To be noted: venom exposed to 100 μM carboplatin, 1 mM CORM-2 or both; venom 2 μg/ml in plasma. As for the experimental part:
(§1) Thrombelastographic analyses. The volumes of subsequently described plasmatic and other additives summed to a final volume of 360 μl. Samples were composed of 320 μl of plasma; 16.4 μl of PBS, 20 μl of 200 mM CaCl2), and 3.6 μl of PBS or venom mixture, which were pipetted into a disposable cup in a Thrombelastograph® hemostasis system (Model 5000, Haemonetics Inc., Braintree, MA, USA) at 37° C., and then rapidly mixed by moving the cup up against and then away from the plastic pin five times. The following viscoelastic parameters described previously (see, Nielsen V G (2019) J Thromb Thrombolysis 47, 73-79; Gessner G, et al., (2017) Eur J Pharmacol 815, 33-41; Nielsen V G, Wagner M T, Frank N (2020) Int J Mol Sci 21, 2082; Lazić D, Arsenijević A, Puchta R, Bugarčić ŽD, Rilak A (2016) Dalton Trans 45, 4633; Hanif M, et al., (2017) ChemPlusChem 82, 841-847) were measured: time to maximum rate of thrombus generation (TMRTG): this is the time interval (minutes) observed prior to maximum speed of clot growth; maximum rate of thrombus generation (MRTG): this is the maximum velocity of clot growth observed (dynes/cm^2/second); and total thrombus generation (TTG, dynes/cm^2), the final viscoelastic resistance observed after clot formation.
B. moojeni. This venom was exposed to 0 or 1 mM CORM-2 in the presence of 0 or 100 μM RuCl3 in PBS for at least 5 minutes at room temperature prior to placement into plasma followed immediately with commencement of thrombelastographic analysis. The final concentration of this venom in plasma was 2 μg/ml.
(§2) Given the aforementioned, the experimental conditions utilized were: 1) V condition—venom in PBS; 2) Ru(II) condition—venom exposed to CORM-2; 3) Ru(III) condition—venom exposed to RuCl3; 4) Ru(II+III) condition—venom exposed to CORM-2 and RuCl3 simultaneously. After the 5 minute period at room temperature, 3.6 μl of one of these solutions was added to the plasma sample in the plastic thrombelastograph cup.
(§3) The volumes of subsequently described plasmatic and other additives summed to a final volume of 360 μl. Samples were composed of 320 μl of plasma; 16.4 μl of PBS, 20 μl of 200 mM CaCl2), and 3.6 μl of PBS or venom mixture, which were pipetted into a disposable cup in a Thrombelastograph® hemostasis system (Model 5000, Haemonetics Inc., Braintree, MA, USA) at 37° C., and then rapidly mixed by moving the cup up against and then away from the plastic pin five times. The following viscoelastic parameters described previously (see, Nielsen, V. G. J Thromb Thrombolysis 2019, 47, 73-79; Gessner, G.; et al., Eur J Pharmacol 2017, 815, 33-41; Nielsen, V. G.; Wagner, M. T.; Frank, N. Int J Mol Sci 2020, 21, 2082; Lazid, D.; et al., Dalton Trans 2016, 45, 4633; Hanif, M.; et al., ChemPlusChem 2017, 82, 841-847) were measured: time to maximum rate of thrombus generation (TMRTG): this is the time interval (minutes) observed prior to maximum speed of clot growth; maximum rate of thrombus generation (MRTG): this is the maximum velocity of clot growth observed (dynes/cm2/second); and total thrombus generation (TTG, dynes/cm2), the final viscoelastic resistance observed after clot formation.
B. moojeni. This venom was exposed to 0 or 1 mM CORM-2 or CORM-3 in the presence of 0 or 100 μM RuCl3 in PBS for at least 5 minutes at room temperature prior to placement into plasma followed immediately with commencement of thrombelastographic analysis. This venom was also exposed to 0 or 1 mM CORM-2 in the presence of 0 or 100 μM carboplatin in another series of experiments. The final concentration of this venom in plasma was 2 μg/ml.
Given the aforementioned, the experimental conditions utilized were: 1) V condition—venom in PBS; 2) Ru(II) condition—venom exposed to CORM-2 or CORM-3; 3) Ru(III) condition—venom exposed to RuCl3; 4) Ru(II+III) condition—venom exposed to CORM-2 or CORM-3 and RuCl3 simultaneously; 5) Pt(II) condition—venom exposed to carboplatin; and 6) Pt+Ru condition—venom exposed to carboplatin and CORM-2.

In experiment [1] the test system is Calloselasma rhodostoma venom. The description is as above. It is filed as biochemical. To be noted: venom exposed to 100 μM carboplatin, 100 μM CORM-2 or both; venom 5 μg/ml in plasma. Here is the method: as §1
C. rhodostoma. […] The final concentration of this venom in plasma was 5 μg/ml.
as §2, §3
C. rhodostoma. […] This venom was also exposed to 0 or 100 μM CORM-2 in the presence of 0 or 100 μM carboplatin in another series of experiments. The final concentration of this venom in plasma was 5 μg/ml.

Regarding `N.N.O=C([O-])C1(C(=O)[O-])CCC1.[Pt+2]` [carboplatin, reference compound], in the experiment with Bothrops moojeni venom, the coagulation kinetic parameters entry was “no significant change in any of the coagulation kinetic parameters”. Moreover, the “procoagulant activity of venom” value in experiment [1] is on record as “no significant effect”.
